From patent US20120015923A1, “USE OF ANDROGRAPHOLIDE COMPOUNDS FOR TREATING INFLAMMATION AND AIRWAY DISORDERS” (NATIONAL UNIVERSITY OF SINGAPORE, priority 2009, published 2012) come the findings set out here.

Assay [1] has as its system lung tissue eosinophilia, mucus secretion and mast cells. Put plainly: Histologic analysis of lung tissue (H&E, PAS, toluidine-blue). It is filed as in vivo, BALB/c mice. Particulars: OVA-challenged mice; for lung tissue eosinophilia / eosinophil-rich leukocyte infiltration (H&E): vs DMSO control. The procedure: Lungs were fixed in 10% neutral formalin, paraffinized, cut into 6-μm sections, and stained with hematoxylin and eosin (H&E) for examining cell infiltration and with periodic acid-Schiff stain (PAS) for measuring mucus production. Quantitative analysis was performed blinded as described below. Mast cells were detected in lung tissue using toluidine-blue staining, and the number of mast cells was counted in paraffin sections. The percentage of degranulated mast cells in the lung was calculated by counting the number of cells with 10% of extrusion of granules.
For both H&E and PAS staining, bronchioles selected for analysis were of similar structure and sizes, with clear morphology presentations and minimum disruptions of the surrounding tissues that could be formed during sectioning. The scoring of inflammatory and globlet cells was performed in 2-4 preparations of each mouse and mean scores were calculated from 4-5 mice. Peribronchial cell counts were performed in a blind manner and scored as known in the art. A five-point scoring system (0-4) was adapted: 0, no cells; 1, a few cells; 2, a ring of cells one cell layer deep; 3, a ring of cells two to four cells deep; 4, a ring of cells more than four cells deep. Goblet cell hyperplasia in the airway epithelium was assessed blind and scored according to the percentage of PAS-positive mucus-producing cells. A five-point (0-4) grading system was as follows: 0, no goblet cells; 1, <25%; 2, 25-50%; 3, 50-75%; 4, >75%. Briefly, to determine the severity of inflammatory cell infiltration, peribronchial cell counts were performed blind based on a 5-point scoring system: 0, no cells; 1, a few cells; 2, a ring of cells 1 cell layer deep; 3, a ring of cells 2-4 cells deep; 4, a ring of cells of >4 cells deep. To determine the extent of mucus production, goblet cell hyperplasia in the airway epithelium was quantified blind using a 5-point grading system: 0, no goblet cells; 1, <25%; 2, 25-50%; 3, 50-75%; 4, >75%. Scoring of inflammatory cells and goblet cells was performed in at least 3 different fields for each lung section. Mean scores were obtained from 4 animals. *Significant difference from DMSO control, P<0.05.

The test system of assay [2] is OVA-induced inflammatory cell recruitment. Put plainly: BAL fluid total and differential inflammatory cell counts, OVA mouse asthma model. The format is in vivo, BALB/c mice. Particulars: for total cell count in BAL fluid: 0.1, 0.5 and 1 mg/kg i.p. 2 h before and 10 h after each challenge; for total cell count in BAL fluid / eosinophil count in BAL fluid: BAL fluid 24 hours after last OVA aerosol, vs DMSO control; for eosinophil count in BAL fluid: 0.1, 0.5 and 1 mg/kg i.p.; for OVA-induced inflammatory cell counts in BAL fluid: sensitized mice 24 hours after last OVA aerosol challenge, 0.1, 0.5, 1 mg/kg. The protocol: Female BALB/c mice (Interfauna, East Yorkshire, UK), were housed in appropriate cages (maximum 4 mice/cage) at the Animal Holding Unit (AHU), NUS. The temperature and humidity of the housing environment were maintained at approximately 22° C. and 55% respectively. Commercial mouse feed and water were provided ad libitum. The beddings were changed three times a week to ensure cleanliness of the living conditions. The handling of mice and the experiments carried out strictly followed the guidelines approved by the Institutional Animal Care and Use Committee (IACUC) of NUS, Singapore.
All mice were acclimatized for at least one week before sensitization. A sensitization mixture was prepared by dissolving 20 μg of OVA and 4 mg of Al(OH)3 in 0.1 ml of Saline. The murine asthma model was developed by sensitizing the mice with 0.1 ml of sensitization mixture on Day 0 and Day 14 using intraperitoneal (i.p.) injections.
The sensitized mice were subjected to airway challenge to produce both the control model as well as the asthma model. A challenge mix was prepared by dissolving 0.15 g OVA into 15 ml of saline solution. The mice were then challenged with aerosolized 1% OVA for 30 minutes on Day 22, 23, 24 to stimulate asthmatic response. A negative control for the asthma model was developed by performing saline challenge on several mice. In this case, 15 ml of saline was used as the challenge mix.
Andrographolide or DDAG alone (0.1, 0.5, and 1 mg/kg; Sigma, St. Louis, Mo.) or vehicle (1% dimethyl sulfoxide [DMSO]) in 0.1 ml saline was given by intraperitoneal injections 2 hour before and 10 hours after each OVA aerosol challenge. Andrographolide or 14-deoxy-11,12-didehydroandrographolide (DDA) were prepared from stock. DMSO was used as a solvent to dissolve Andrographolide or DDA. A stock solution of 10 mg/ml was prepared and stored at −20° C. When used, the stock solution was thawed and diluted with Saline solution to form three different drug concentrations: 0.01 mg/ml, 0.05 mg/ml and 0.1 mg/ml.
Bronchoalveolar lavage (BAL) was conducted on Day 25, 24 hours after the final OVA/saline challenge. Mice were anaesthetized by 0.3 ml i.p. injections of an anesthetic cocktail (ketamine: medetomidine: H2O=3:4:33, Parnell, Alexandria NSW, Australia & Pfizer, Auckland, New Zealand) with 27 G½ sterile needle (PrecisionGlide®). Mice were sacrificed by cervical dislocation 5 minutes after anesthetization. 25 G½ sterile needles (PrecisionGlide®) were used for blood extraction. […] Tracheotomy was then performed and a small transverse incision was made on the exposed trachea. Blunt needles (20 G), which were connected to 1 ml sterile syringes, were inserted into the trachea through this incision and 0.5 ml of ice-cold PBS (4° C.) was instilled thrice into the lungs (0.5 ml×3). About 1.2-1.4 ml of BAL fluid was retrieved from each mouse and was kept in −80° C. for subsequent experiments.
BAL fluid collected from the lungs of the mouse was centrifuged at 3000 rpm for 5 min at 4° C. The supernatant was collected and stored at −80° C. The pellet was resuspended in 200 μl of 0.875% NH4Cl (8.75 mg NH4Cl in 1 ml MilliQ water) and incubated for 5 minutes at room temperature to remove unwanted erythrocytes. The cell suspension was then centrifuged at 3000 rpm for 5 min at 4° C. The supernatant was discarded and the pellet containing inflammatory cells was resuspended in 200 μl of RPMI with 1% BSA (10 mg BSA in 1 ml RPMI). The total number of viable cells was enumerated using a haemocytometer (10 μl of 0.4% trypan blue: 10 μl of cell suspension), under a microscope at 200×magnification.
Following the total cell count, dilutions were performed on the BAL fluid collected with the RPMI/BSA solution (1×10^5 cells per 150 μl of RPMI/BSA). Cytocentrifugation was then carried out on all samples using a Cytospin centrifuge (Thermo Shandon, Pittsburgh, USA) at 600 g for 10 minutes to fix the cells on glass slides. […]

Where [3] appears, read: OVA-challenged mice, high dose 1 mg/kg i.p.

Turning to `C=C1CCC2C(C)(CO)C(O)CCC2(C)C1C=CC1=CCOC1=O` (centres unmarked) [DDAG, 14-Deoxy-11,12-didehydroandrographolide], in assay [1] (1 mg/kg), the “airway mucus production / mucus hypersecretion (PAS)” value was “significantly halted” and the “lung tissue eosinophilia / eosinophil-rich leukocyte infiltration (H&E)” value is listed as “markedly diminished”. The “total degranulating mast cell counts in toluidine-blue staining lung section” value in assay [1] (1 mg/kg, vs DMSO vehicle control) is recorded as “drastically decreased”. In assay [2] (OVA-challenged mice), the “total cell count in BAL fluid” value was “drastically decreased” and the “eosinophil count in BAL fluid” value is given as “drastically decreased”. Further, in assay [2] (setting [3]), the “lymphocyte count in BAL fluid” value is on record as “reduced” and the “macrophage count in BAL fluid” value is “reduced”. The “anti-inflammatory effects in mouse asthma model” value in assay [2] (low dose given alone) was “do not show any anti-inflammatory effects”. Moreover, in assay [2], the “OVA-induced inflammatory cell counts in BAL fluid” value is recorded as “dose-dependently reduced”.
Turning to `C=C1CC[C@@H]2[C@](C)(CO)[C@H](O)CC[C@@]2(C)[C@@H]1C/C=C1/C(=O)OC[C@H]1O` [Andrographolide], in assay [1], the E-selectin entry is given as “inhibited” and the VCAM-1 result was “inhibited”. For the same compound, in assay [1] (1 mg/kg), the “airway mucus production / mucus hypersecretion (PAS)” value was “attenuated” and the “lung tissue eosinophilia / eosinophil-rich leukocyte infiltration (H&E)” value is on record as “attenuated”. For the same compound, in assay [2] (OVA-challenged mice), the “total cell count in BAL fluid” value is recorded as “inhibited” and the “eosinophil count in BAL fluid” value is listed as “inhibited”. The “OVA-induced lymphocyte counts in BAL fluid” value in assay [2] (OVA-challenged mice, dose not stated) is listed as “inhibited”. Also, in assay [2], the “OVA-induced inflammatory cell counts in BAL fluid” value is “dose-dependently reduced”.
